Laboratory results reported in PubChem BioAssay AID250 (DTP/NCI, 2004).
Inconclusive results and toxic doses are left out.

Tested on: BDF1 mice, L1210 leukemia sc, survival T/C
Test: NCI In Vivo Anticancer Drug Screen. Data for tumor model L1210 Leukemia (subcutaneous) in B6D2F1 (BDF1) mice
Settings: endpoint: median survival time, higher = longer survival
In short: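 Mice carrying transplanted tumors received test compounds, and survival or tumor size was measured. Values are the treated-group measurement (T) divided by that of the vehicle-treated control group (C).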

## OC(CBr)C(O)C(O)C(O)CBr (stereo unspecified)
dose: 108.0 mg/kg/injection, schedule: Q01DX009 (ip), vehicle: steriod suspending solution
  T/C: 105 % of control
dose: 108.0 mg/kg/injection, schedule: Q01DX009 (sc), vehicle: steriod suspending solution
  T/C: 100 % of control
dose: 180.0 mg/kg/injection, schedule: Q01DX009 (ip), vehicle: steriod suspending solution
  T/C: 116 % of control
dose: 180.0 mg/kg/injection, schedule: Q01DX009 (sc), vehicle: steriod suspending solution
  T/C: 111 % of control
dose: 180.0 mg/kg/injection, schedule: Q04DX003 (ip), vehicle: steriod suspending solution
  T/C: 100 % of control
dose: 180.0 mg/kg/injection, schedule: Q04DX003 (sc), vehicle: steriod suspending solution
  T/C: 105 % of control
dose: 300.0 mg/kg/injection, schedule: Q01DX009 (ip), vehicle: steriod suspending solution
  T/C: 122 % of control
dose: 300.0 mg/kg/injection, schedule: Q01DX009 (sc), vehicle: steriod suspending solution
  T/C: 116 % of control
dose: 300.0 mg/kg/injection, schedule: Q04DX003 (ip), vehicle: steriod suspending solution
  T/C: 111 % of control
dose: 300.0 mg/kg/injection, schedule: Q04DX003 (sc), vehicle: steriod suspending solution
  T/C: 111 % of control
dose: 500.0 mg/kg/injection, schedule: Q01DX009 (sc), vehicle: steriod suspending solution
  T/C: 155 % of control
dose: 500.0 mg/kg/injection, schedule: Q04DX003 (ip), vehicle: steriod suspending solution
  T/C: 100 % of control
dose: 500.0 mg/kg/injection, schedule: Q04DX003 (sc), vehicle: steriod suspending solution
  T/C: 105 % of control
dose: 833.0 mg/kg/injection, schedule: Q04DX003 (ip), vehicle: steriod suspending solution
  T/C: 122 % of control
dose: 833.0 mg/kg/injection, schedule: Q04DX003 (sc), vehicle: steriod suspending solution
  T/C: 122 % of control
dose: 1388.0 mg/kg/injection, schedule: Q01DX009 (sc), vehicle: other
  T/C: 111 % of control
dose: 1388.0 mg/kg/injection, schedule: Q01DX009 (sc), vehicle: steriod suspending solution
  T/C: 110 % of control
dose: 1388.0 mg/kg/injection, schedule: Q01DX015 (sc), vehicle: other
  T/C: 110 % of control
dose: 1388.0 mg/kg/injection, schedule: Q01DX015 (sc), vehicle: steriod suspending solution
  T/C: 110 % of control

## C[n+]1cccc2cc(NC(=O)c3ccc(C(=O)Nc4ccc5c(ccc[n+]5C)c4)cc3)ccc21
dose: 3.0 mg/kg/injection, schedule: Q01DX Z (sc), vehicle: saline
  T/C: 100 % of control
dose: 5.0 mg/kg/injection, schedule: Q01DX Z (sc), vehicle: saline
  T/C: 100 % of control
dose: 8.4 mg/kg/injection, schedule: Q01DX Z (sc), vehicle: saline
  T/C: 100 % of control
dose: 14.0 mg/kg/injection, schedule: Q01DX Z (sc), vehicle: saline
  T/C: 105 % of control
dose: 23.0 mg/kg/injection, schedule: Q01DX Z (sc), vehicle: saline
  T/C: 100 % of control
dose: 39.0 mg/kg/injection, schedule: Q01DX Z (sc), vehicle: saline
  T/C: 233 % of control
dose: 65.0 mg/kg/injection, schedule: Q01DX Z (sc), vehicle: saline
  T/C: 172 % of control
dose: 108.0 mg/kg/injection, schedule: Q01DX Z (sc), vehicle: saline
  T/C: 205 % of control
dose: 180.0 mg/kg/injection, schedule: Q01DX Z (sc), vehicle: saline
  T/C: 194 % of control

## O[C@H](CN1CC1)[C@@H](O)CN1CC1
dose: 0.14 mg/kg/injection, schedule: Q01DX Z (sc), vehicle: saline
  T/C: 100 % of control
dose: 0.22 mg/kg/injection, schedule: Q01DX Z (sc), vehicle: saline
  T/C: 111 % of control
dose: 0.23 mg/kg/injection, schedule: Q01DX Z (sc), vehicle: saline
  T/C: 111 % of control
dose: 0.6 mg/kg/injection, schedule: Q01DX Z (sc), vehicle: saline
  T/C: 177 % of control
dose: 0.65 mg/kg/injection, schedule: Q01DX Z (sc), vehicle: saline
  T/C: 183 % of control
dose: 1.0 mg/kg/injection, schedule: Q01DX Z (sc), vehicle: saline
  T/C: 172 % of control
dose: 1.08 mg/kg/injection, schedule: Q01DX Z (sc), vehicle: saline
  T/C: 155 % of control
dose: 2.8 mg/kg/injection, schedule: Q01DX Z (sc), vehicle: saline
  T/C: 122 % of control
